Measured values reported in patent US10392368B2, “Pyrazolo and triazolo bicyclic compounds as JAK kinase inhibitors” (THERAVANCE BIOPHARMA R&D IP, LLC, priority 2017, dated 2019).
Read-outs that look alike come from different tables or passages of the source.

Assays:
JAK3 = target: T1, JAK3 (Homo sapiens, UniProt P52333); test: Biochemical JAK3 kinase assay (LanthaScreen); parameters: GST; purchased Life Technologies; settings: for Ki: read-out: JAK 3 (pKi) (converted)
T1 sequence (P52333 1-1124): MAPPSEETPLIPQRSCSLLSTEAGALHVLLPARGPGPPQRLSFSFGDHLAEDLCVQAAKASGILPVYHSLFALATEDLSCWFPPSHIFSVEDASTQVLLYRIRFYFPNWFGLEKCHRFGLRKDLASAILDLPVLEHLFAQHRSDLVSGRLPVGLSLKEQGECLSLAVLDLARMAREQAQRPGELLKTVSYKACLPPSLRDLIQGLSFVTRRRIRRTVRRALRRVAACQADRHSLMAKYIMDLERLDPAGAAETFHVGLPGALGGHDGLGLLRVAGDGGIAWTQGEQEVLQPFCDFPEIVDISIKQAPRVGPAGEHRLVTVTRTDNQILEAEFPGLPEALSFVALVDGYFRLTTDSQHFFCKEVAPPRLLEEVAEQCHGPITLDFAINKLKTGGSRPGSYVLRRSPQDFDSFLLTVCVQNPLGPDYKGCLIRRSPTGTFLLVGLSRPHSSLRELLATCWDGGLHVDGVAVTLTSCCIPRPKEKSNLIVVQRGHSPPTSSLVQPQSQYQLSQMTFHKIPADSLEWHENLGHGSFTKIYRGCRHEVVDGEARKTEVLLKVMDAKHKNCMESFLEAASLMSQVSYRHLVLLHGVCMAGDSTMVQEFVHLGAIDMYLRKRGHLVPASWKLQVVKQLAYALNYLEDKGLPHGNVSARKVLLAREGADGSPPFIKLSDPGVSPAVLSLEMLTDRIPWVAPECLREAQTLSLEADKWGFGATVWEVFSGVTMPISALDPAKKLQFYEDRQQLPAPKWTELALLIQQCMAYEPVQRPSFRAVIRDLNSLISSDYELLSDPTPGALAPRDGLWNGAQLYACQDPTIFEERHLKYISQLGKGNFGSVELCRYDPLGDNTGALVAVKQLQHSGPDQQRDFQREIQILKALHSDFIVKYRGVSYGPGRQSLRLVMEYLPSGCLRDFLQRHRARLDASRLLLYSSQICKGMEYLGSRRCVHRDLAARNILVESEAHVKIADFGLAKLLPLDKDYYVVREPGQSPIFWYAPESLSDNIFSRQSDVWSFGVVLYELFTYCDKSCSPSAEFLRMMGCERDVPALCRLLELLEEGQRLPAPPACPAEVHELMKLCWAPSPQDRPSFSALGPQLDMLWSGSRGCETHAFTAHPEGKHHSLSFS
Procedure, shortened: (§1)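 TR-FRET read-out: terbium anti-pSTAT1 (pTyr701) antibody, 2 nM, with 10 mM EDTA quench, emission ratio 520/495 nm. GST-JAK phosphorylates GFP-STAT1 peptide for 1 h at ambient temperature after 1 h compound pre-incubation. pIC50 from dose-response converted to pKi by Cheng-Prusoff.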

JAK2 = target: T2, JAK2 (Homo sapiens, UniProt O60674); test: Biochemical JAK2 kinase assay (LanthaScreen); settings: for Ki: read-out: JAK 2 (pKi) (converted)
T2 construct: GST; purchased Life Technologies
Procedure, shortened: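 pKi values derive from pIC50 via Cheng-Prusoff, with IC50 from a 4-parameter fit of percent-inhibition TR-FRET data using Tb-anti-pSTAT1 (pTyr701) detection. Compound, GST-JAK2 and GFP-STAT1 substrate were pre-incubated 1 h, then ATP started a 1 h ambient reaction (HEPES pH 7.5, 10 mM MgCl2, 1% DMSO).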

JAK1 = target: T3, JAK1 (Homo sapiens, UniProt P23458); test: Biochemical JAK1 kinase assay (LanthaScreen); settings: for Ki: read-out: JAK 1 (pKi) (converted)
T3 construct: GST; purchased Life Technologies
Procedure, shortened: as §1

Tyk2 = target: T4, Tyk2 (Homo sapiens, UniProt P29597); test: Biochemical Tyk2 kinase assay (LanthaScreen); settings: for Ki: read-out: Tyk 2 (pKi) (converted)
T4 construct: GST; purchased Life Technologies
Procedure, shortened: as §1

[1] = tested on: IL-2 stimulated pSTAT5 in Tall-1 T cells; test: Cellular JAK3 potency assay: inhibition of IL-2 stimulated pSTAT5 in Tall-1 T cells; format: cell-based, human; settings: for IC50: Homo sapiens, read-out: Tall-1 (pIC50) (converted)
Procedure, shortened: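 Tall-1 human T cells were preincubated with compound for 1 h at 37° C, then stimulated with IL-2 (300 ng/ml final) for 30 min. STAT5 phosphorylation in lysates was read by AlphaLisa bead emission, and IC50 from inhibition curves is given as pIC50 (mean±SD).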

[2] = selectivity: difference of pKi JAK3 and pKi JAK1
[3] = IL-2 stimulated pSTAT5 in Tall-1 T cells
[4] = TALL-1, IL-2 stimulated pSTAT5 in Tall-1 T cells
[5] = selectivity JAK3 over JAK1, difference of pKi
[6] = IL-2 stimulated pSTAT5, Tall-1 T cells
[7] = TALL-1, IL-2 stimulated pSTAT5, Tall-1 T cells

T4 sequence (P29597 whole entry): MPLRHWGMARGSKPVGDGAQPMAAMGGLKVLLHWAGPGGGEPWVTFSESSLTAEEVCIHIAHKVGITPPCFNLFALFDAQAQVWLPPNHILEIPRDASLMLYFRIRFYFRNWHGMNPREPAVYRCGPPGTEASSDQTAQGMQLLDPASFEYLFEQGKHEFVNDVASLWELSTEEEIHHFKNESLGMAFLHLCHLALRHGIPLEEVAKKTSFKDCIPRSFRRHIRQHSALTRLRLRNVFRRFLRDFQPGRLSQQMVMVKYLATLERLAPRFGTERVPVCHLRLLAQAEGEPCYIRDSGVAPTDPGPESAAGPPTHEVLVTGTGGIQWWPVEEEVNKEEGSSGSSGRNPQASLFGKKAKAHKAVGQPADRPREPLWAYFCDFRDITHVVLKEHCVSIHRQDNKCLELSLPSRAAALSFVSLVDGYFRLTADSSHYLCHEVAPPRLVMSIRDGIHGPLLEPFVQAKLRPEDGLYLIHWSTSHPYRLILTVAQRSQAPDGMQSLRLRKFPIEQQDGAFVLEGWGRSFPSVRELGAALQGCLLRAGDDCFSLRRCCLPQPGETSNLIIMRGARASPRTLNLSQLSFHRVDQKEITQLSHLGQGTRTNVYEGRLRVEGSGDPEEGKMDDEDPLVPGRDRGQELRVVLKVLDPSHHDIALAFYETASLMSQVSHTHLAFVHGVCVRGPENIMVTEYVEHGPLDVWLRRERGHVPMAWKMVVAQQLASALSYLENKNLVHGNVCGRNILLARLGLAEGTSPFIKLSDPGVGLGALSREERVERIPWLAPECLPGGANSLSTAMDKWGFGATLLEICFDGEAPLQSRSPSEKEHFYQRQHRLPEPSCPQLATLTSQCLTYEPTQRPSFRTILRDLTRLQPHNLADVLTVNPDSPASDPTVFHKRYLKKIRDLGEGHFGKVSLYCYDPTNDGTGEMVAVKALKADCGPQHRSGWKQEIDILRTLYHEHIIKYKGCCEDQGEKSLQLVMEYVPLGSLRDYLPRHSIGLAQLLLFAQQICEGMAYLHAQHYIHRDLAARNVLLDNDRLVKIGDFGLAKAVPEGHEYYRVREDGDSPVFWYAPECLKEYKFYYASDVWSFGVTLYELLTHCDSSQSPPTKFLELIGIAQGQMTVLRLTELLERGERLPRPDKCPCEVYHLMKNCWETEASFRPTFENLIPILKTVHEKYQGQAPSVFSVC
T3 sequence (P23458 whole entry): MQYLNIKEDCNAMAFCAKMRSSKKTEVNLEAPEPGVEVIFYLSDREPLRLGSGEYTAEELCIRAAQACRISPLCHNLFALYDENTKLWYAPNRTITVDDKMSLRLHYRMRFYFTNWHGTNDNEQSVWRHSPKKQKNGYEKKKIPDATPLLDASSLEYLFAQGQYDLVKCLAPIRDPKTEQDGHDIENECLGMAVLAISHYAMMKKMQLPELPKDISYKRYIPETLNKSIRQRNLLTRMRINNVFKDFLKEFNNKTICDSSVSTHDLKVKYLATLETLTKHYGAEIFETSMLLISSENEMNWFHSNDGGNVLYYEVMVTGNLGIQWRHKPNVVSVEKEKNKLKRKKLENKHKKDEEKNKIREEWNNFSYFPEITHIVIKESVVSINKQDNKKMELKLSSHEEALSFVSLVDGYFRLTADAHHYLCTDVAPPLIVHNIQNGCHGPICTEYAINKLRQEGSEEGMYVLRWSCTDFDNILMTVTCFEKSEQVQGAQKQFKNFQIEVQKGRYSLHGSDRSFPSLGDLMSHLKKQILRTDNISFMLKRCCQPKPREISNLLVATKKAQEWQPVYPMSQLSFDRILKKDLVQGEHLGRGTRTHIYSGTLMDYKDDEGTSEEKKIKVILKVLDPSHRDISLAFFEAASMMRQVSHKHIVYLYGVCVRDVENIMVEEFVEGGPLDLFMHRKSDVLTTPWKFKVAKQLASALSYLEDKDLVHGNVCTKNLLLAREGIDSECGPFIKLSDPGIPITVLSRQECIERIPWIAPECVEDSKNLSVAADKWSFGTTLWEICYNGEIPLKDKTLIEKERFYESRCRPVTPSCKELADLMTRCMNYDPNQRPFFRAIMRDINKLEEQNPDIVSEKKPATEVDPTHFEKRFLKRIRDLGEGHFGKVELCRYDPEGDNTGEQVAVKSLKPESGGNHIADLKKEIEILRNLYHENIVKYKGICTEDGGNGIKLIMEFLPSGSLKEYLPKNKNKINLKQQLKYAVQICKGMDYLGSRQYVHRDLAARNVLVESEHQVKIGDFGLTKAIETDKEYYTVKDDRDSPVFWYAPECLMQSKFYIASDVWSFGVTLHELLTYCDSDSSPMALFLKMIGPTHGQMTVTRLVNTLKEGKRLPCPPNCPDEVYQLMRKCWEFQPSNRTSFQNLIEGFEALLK
T2 sequence (O60674 whole entry): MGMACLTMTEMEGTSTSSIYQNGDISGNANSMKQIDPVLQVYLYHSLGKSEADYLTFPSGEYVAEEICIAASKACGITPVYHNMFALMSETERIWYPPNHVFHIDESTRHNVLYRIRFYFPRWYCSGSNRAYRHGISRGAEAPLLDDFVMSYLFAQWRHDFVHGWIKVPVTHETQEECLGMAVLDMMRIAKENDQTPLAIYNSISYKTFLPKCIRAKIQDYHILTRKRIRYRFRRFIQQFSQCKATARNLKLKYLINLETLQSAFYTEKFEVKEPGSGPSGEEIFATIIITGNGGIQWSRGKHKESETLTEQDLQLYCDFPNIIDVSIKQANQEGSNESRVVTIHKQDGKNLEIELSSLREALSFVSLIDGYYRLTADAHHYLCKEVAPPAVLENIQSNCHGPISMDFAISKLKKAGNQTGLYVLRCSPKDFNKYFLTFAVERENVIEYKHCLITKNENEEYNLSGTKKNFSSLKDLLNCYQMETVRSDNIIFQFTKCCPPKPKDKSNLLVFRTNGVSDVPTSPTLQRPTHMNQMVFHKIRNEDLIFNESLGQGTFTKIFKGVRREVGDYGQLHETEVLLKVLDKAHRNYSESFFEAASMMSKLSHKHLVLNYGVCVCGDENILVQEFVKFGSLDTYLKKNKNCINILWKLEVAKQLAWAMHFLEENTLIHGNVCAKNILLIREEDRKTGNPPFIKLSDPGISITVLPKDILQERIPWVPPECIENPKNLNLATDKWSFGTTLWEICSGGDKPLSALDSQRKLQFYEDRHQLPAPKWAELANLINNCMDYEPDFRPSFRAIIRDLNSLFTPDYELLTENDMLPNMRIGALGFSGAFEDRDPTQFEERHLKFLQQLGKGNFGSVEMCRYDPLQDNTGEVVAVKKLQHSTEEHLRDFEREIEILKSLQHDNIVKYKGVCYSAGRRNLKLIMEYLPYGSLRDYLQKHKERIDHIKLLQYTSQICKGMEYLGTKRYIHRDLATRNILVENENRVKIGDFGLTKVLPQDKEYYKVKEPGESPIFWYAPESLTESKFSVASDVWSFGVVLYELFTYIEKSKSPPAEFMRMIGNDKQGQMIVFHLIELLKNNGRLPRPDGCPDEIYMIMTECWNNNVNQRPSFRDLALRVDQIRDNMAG

Row | Structure (SMILES) | JAK 3 (pKi) (JAK3) | JAK3 (pKi)-JAK1 (pKi) (JAK3; [2]) | JAK 2 (pKi) (JAK2) | JAK 1 (pKi) (JAK1) | Tyk 2 (pKi) (Tyk2) | Tall-1 (pIC50) [1, 3] | Ki (JAK3) [nM] | Ki (JAK2) [nM] | Ki (JAK1) [nM] | Ki (Tyk2) [nM] | IC50 [1, 4] [nM] | JAK3 (pKi)-JAK1 (pKi) (JAK3; [5]) | Tall-1 (pIC50) [1, 6] | IC50 [1, 7] [nM]
1 | C=CC(=O)N1CC[C@H](Oc2cc(-c3cc(F)c(O)cc3F)cc3[nH]ncc23)C1 [Compound 1-19] | B (a pKi value between 9 and 10 (Ki between 1 nM and 0.1 nM)) | A (a value of 3 or above) | D (a pKi value between 7 and 8 (Ki between 100 nM and 10 nM)) | E (a pKi value of 7 or below (Ki of 100 nM or above)) | E (a pKi value of 7 or below (Ki of 100 nM or above)) | B (a pIC50 value between 6.7 (included) and 7.5 (IC50 between 200 nM and 32 nM)) |  |  |  |  |  |  |  | 
2 | CN(C)C/C=C/C(=O)N1CC(C#N)(COc2nc(-c3ccc(O)cc3)cc3[nH]ncc23)C1 [Compound 3-102] |  | A (a value of 3 or above) |  |  |  |  | 0.1 to 1 | > 100 | > 100 | > 100 | 31.6 to 200 |  |  | 
3 | C=CC(=O)N1C2CCC1CC(Nc1cc(-c3ccc(O)cc3)cc3[nH]ncc13)C2 (stereo not drawn) [Compound 9-9] | A (a pKi value≥10 (Ki≤0.1 nM)) |  | C (a pKi value between 8 and 9 (Ki between 10 nM and 1 nM)) | D (a pKi value between 7 and 8 (Ki between 100 nM and 10 nM)) | D (a pKi value between 7 and 8 (Ki between 100 nM and 10 nM)) |  |  |  |  |  |  | B (a value of 2.3 to 3) | A (a pIC50 value≥7.5 (IC50≤32 nM)) | 
4 | C=CC(=O)N1CC(CSc2cc(-c3ccc(O)cc3)cc3[nH]ncc23)C1 [Compound 12-34] |  |  |  |  |  |  | 0.1 to 1 | > 100 | > 100 | > 100 |  | B (a value of 2.3 to 3) |  | < 31.6
5 | C=CC(=O)N1CC(F)(COc2cc(-c3ccc(O)c(Cl)c3)cc3[nH]ncc23)C1 [Compound 3-43] | B (a pKi value between 9 and 10 (Ki between 1 nM and 0.1 nM)) | A (a value of 3 or above) | D (a pKi value between 7 and 8 (Ki between 100 nM and 10 nM)) | E (a pKi value of 7 or below (Ki of 100 nM or above)) | E (a pKi value of 7 or below (Ki of 100 nM or above)) | A (a pIC50 value≥7.5 (IC50≤32 nM)) |  |  |  |  |  |  |  | 
6 | C=CC(=O)N1CC[C@H](Oc2cc(-c3ccc(O)cc3)nc3[nH]nc(C)c23)C1 [Compound 1-31] |  | A (a value of 3 or above) |  |  |  |  | < 0.1 | > 100 | > 100 | > 100 | 31.6 to 200 |  |  | 
7 | COC1CCN(C/C=C/C(=O)N2CC(COc3cc(-c4ccc(O)cc4)cc4[nH]ncc34)C2)CC1 [Compound 3-127] |  | A (a value of 3 or above) |  |  |  |  | < 0.1 | 10 to 100 | > 100 | > 100 | 31.6 to 200 |  |  | 
8 | CSC1CCN(C/C=C/C(=O)N2CC(COc3cc(-c4ccc(O)cc4)cc4[nH]ncc34)C2)CC1 [Compound 3-131] |  | B (a value of 2.3 to 3) |  |  |  |  | 0.1 to 1 | 0.1 to 1 | > 100 | > 100 | < 31.6 |  |  | 
9 | C=CC(=O)N1CC[C@@H](COc2cc(-c3ccc(O)cc3)cc3[nH]ncc23)C1 [Compound 12-20] | B (a pKi value between 9 and 10 (Ki between 1 nM and 0.1 nM)) |  | D (a pKi value between 7 and 8 (Ki between 100 nM and 10 nM)) | E (a pKi value of 7 or below (Ki of 100 nM or above)) | E (a pKi value of 7 or below (Ki of 100 nM or above)) |  |  |  |  |  |  | A (a value of 3 or above) | A (a pIC50 value≥7.5 (IC50≤32 nM)) | 
10 | C=CC(=O)N1CCC(COc2cc(-c3ccc(O)c(Cl)c3)cc3[nH]ncc23)CC1 [Compound 14-1] | B (a pKi value between 9 and 10 (Ki between 1 nM and 0.1 nM)) |  | E (a pKi value of 7 or below (Ki of 100 nM or above)) | E (a pKi value of 7 or below (Ki of 100 nM or above)) | E (a pKi value of 7 or below (Ki of 100 nM or above)) |  |  |  |  |  |  | A (a value of 3 or above) | A (a pIC50 value≥7.5 (IC50≤32 nM)) | 
11 | C=CC(=O)N1CC(Sc2cc(-c3ccc(O)cc3)cc3[nH]ncc23)C1 [Compound 12-35] |  |  |  |  |  |  | 0.1 to 1 | > 100 | > 100 | > 100 |  | B (a value of 2.3 to 3) |  | 31.6 to 200
12 | C=CC(=O)N1CC(F)(COc2nc(-c3ccc(O)c(Cl)c3)cc3[nH]ncc23)C1 [Compound 3-47] |  | B (a value of 2.3 to 3) |  |  |  |  | 0.1 to 1 | 10 to 100 | > 100 | > 100 | < 31.6 |  |  | 
13 | CN(C)C/C=C/C(=O)N1CC(Oc2cc(-c3ccc(O)c(Cl)c3)cc3[nH]ncc23)C1 [Compound 5-3] | A (a pKi value≥10 (Ki≤0.1 nM)) | A (a value of 3 or above) | E (a pKi value of 7 or below (Ki of 100 nM or above)) | E (a pKi value of 7 or below (Ki of 100 nM or above)) | E (a pKi value of 7 or below (Ki of 100 nM or above)) | A (a pIC50 value≥7.5 (IC50≤32 nM)) |  |  |  |  |  |  |  | 
14 | C=CC(=O)N1C2CCC1CC(Oc1cc(-c3ccc(O)c(F)c3)cc3[nH]ncc13)C2 (stereo not drawn) [Compound 9-4] | A (a pKi value≥10 (Ki≤0.1 nM)) |  | C (a pKi value between 8 and 9 (Ki between 10 nM and 1 nM)) | E (a pKi value of 7 or below (Ki of 100 nM or above)) | E (a pKi value of 7 or below (Ki of 100 nM or above)) |  |  |  |  |  |  | A (a value of 3 or above) | A (a pIC50 value≥7.5 (IC50≤32 nM)) | 
15 | C=CC(=O)N1CCC(N(C)c2cc(-c3ccc(O)c(F)c3)cc3[nH]ncc23)CC1 [Compound 7-10] | B (a pKi value between 9 and 10 (Ki between 1 nM and 0.1 nM)) |  | D (a pKi value between 7 and 8 (Ki between 100 nM and 10 nM)) | E (a pKi value of 7 or below (Ki of 100 nM or above)) | E (a pKi value of 7 or below (Ki of 100 nM or above)) |  |  |  |  |  |  | A (a value of 3 or above) | B (a pIC50 value between 6.7 (included) and 7.5 (IC50 between 200 nM and 32 nM)) | 
16 | CN(C)C/C=C/C(=O)N1CC(F)(COc2cc(-c3ccc(O)cc3)nc3[nH]ncc23)C1 [Compound 3-89] |  | A (a value of 3 or above) |  |  |  |  | < 0.1 | > 100 | > 100 | > 100 | 31.6 to 200 |  |  | 
17 | C=CC(=O)N1CC(C)(C(=O)Nc2cc(-c3ccc(O)cc3)cc3[nH]ncc23)C1 [Compound 12-68] |  |  |  |  |  |  | 0.1 to 1 | > 100 | > 100 | > 100 |  | A (a value of 3 or above) |  | 200 to 1000
18 | C=CC(=O)N1CC(F)(COc2cc(-c3ccc(O)cc3)nc3[nH]ncc23)C1 [Compound 3-46] |  | A (a value of 3 or above) |  |  |  |  | < 0.1 | > 100 | > 100 | > 100 | < 31.6 |  |  | 
